The source made the active and inactive calls. The calls are words filed in the database; no cut-off is given here.
How the values were obtained:
Candida albicans = assay: Antimicrobial activity against Candida albicans assessed as fungal growth inhibition; format: functional, organism-based
Candida parapsilosis = assay: Antimicrobial activity against Candida parapsilosis assessed as fungal growth inhibition; format: functional, organism-based
HepG2 [1] = assay: Cytotoxicity against human HepG2 cells assessed as cell viability at 20 ug/ml by MTT assay; format: functional, cell-based; details: dose 20.0 µg/ml
A2058 = assay: Cytotoxicity against human A2058 cells assessed as cell viability at 20 ug/ml by MTT assay; format: functional, cell-based; details: dose 20.0 µg/ml
Aspergillus fumigatus = assay: Antimicrobial activity against Aspergillus fumigatus assessed as fungal growth inhibition; format: functional, organism-based
Pichia kudriavzevii = assay: Antimicrobial activity against Pichia kudriavzevii assessed as fungal growth inhibition; format: functional, organism-based
Nakaseomyces glabratus = assay: Antimicrobial activity against Candida glabrata assessed as fungal growth inhibition; format: functional, organism-based
MCF7 = assay: Cytotoxicity against human MCF7 cells assessed as cell viability at 20 ug/ml by MTT assay; format: functional, cell-based; details: dose 20.0 µg/ml
MIA PaCa-2 = assay: Cytotoxicity against human MIA PaCa-2 cells assessed as cell viability at 20 ug/ml by MTT assay; format: functional, cell-based; details: dose 20.0 µg/ml
A549 = assay: Cytotoxicity against human A549 cells assessed as cell viability at 20 ug/ml by MTT assay; format: functional, cell-based; details: dose 20.0 µg/ml
Candida tropicalis = assay: Antimicrobial activity against Candida tropicalis assessed as fungal growth inhibition; format: functional, organism-based
Acinetobacter baumannii = assay: Antimicrobial activity against Acinetobacter baumannii assessed as bacterial growth inhibition; format: functional, organism-based
Escherichia coli = assay: Antimicrobial activity against Escherichia coli assessed as bacterial growth inhibition; format: functional, organism-based
Staphylococcus aureus = assay: Antimicrobial activity against methicillin sensitive Staphylococcus aureus assessed as bacterial growth inhibition; format: functional, organism-based
HepG2 [2] = assay: Cytotoxicity against human HepG2 cells incubated for 48 hrs by absorbance based assay; format: functional, cell-based; details: HepG2, 48 h
N2a = assay: Cytotoxicity against mouse Neuro2a cells incubated for 24 hrs by absorbance based assay; format: functional, cell-based

SMILES | inhibition (Candida albicans) | inhibition (Candida parapsilosis) | Activity (HepG2 [1]) | Activity (A2058) | inhibition (Aspergillus fumigatus) | inhibition (Pichia kudriavzevii) | inhibition (Nakaseomyces glabratus) | Activity (MCF7) | inhibition (MIA PaCa-2) | Activity (A549) | inhibition (Candida tropicalis) | inhibition (Acinetobacter baumannii) | inhibition (Escherichia coli) | inhibition (Staphylococcus aureus) | IC50 (HepG2 [2]) [µM] | IC50 (N2a) [µM]
CO[C@H]1C[C@H]([C@H](C)CC(=O)C=C(C)C)[C@@]2(C)CC[C@@]3(O)C(=C12)CC[C@H]1C(C)(C)[C@@H](O[C@@H]2OC[C@@H](O[C@@H]4O[C@H](CO)[C@H](O)[C@H](O)[C@H]4NC(C)=O)[C@H](O)[C@H]2O[C@@H]2O[C@H](CO[C@@H]4OC[C@@H](O)[C@H](O)[C@H]4O)[C@@H](O)[C@H](O)[C@H]2NC(C)=O)CC[C@@]13C | inactive | inactive | inactive | inactive | inactive | inactive | inactive | inactive | inactive | inactive | inactive | inactive | inactive | inactive |  | 
CC(=O)N[C@H]1[C@H](O[C@@H]2CO[C@@H](O[C@H]3CC[C@]4(C)C5=CC[C@@]6(C)C(=C(CC[C@H]4C3(C)C)O5)CC[C@@H]6[C@H](C)CC(=O)C=C(C)C)[C@H](O[C@@H]3O[C@H](CO[C@@H]4OC[C@@H](O)[C@H](O)[C@H]4O[C@@H]4O[C@H](CO)[C@@H](O)[C@H](O)[C@H]4O)[C@@H](O)[C@H](O)[C@H]3NC(C)=O)[C@H]2O)O[C@H](CO)[C@H](O)[C@@H]1O |  |  |  |  |  |  |  |  |  |  |  |  |  |  | 5.9 | 
CC(=O)N[C@H]1[C@H](O[C@@H]2CO[C@@H](O[C@H]3CC[C@]4(C)C5=C(CC[C@H]4C3(C)C)C3CC[C@H]([C@H](C)CC(=O)C=C(C)C)[C@@]3(C)CC5)[C@H](O[C@@H]3O[C@H](CO[C@@H]4OC[C@@H](O)[C@H](O)[C@H]4O[C@@H]4O[C@H](CO)[C@H](O)[C@@H](O)[C@H]4O)[C@@H](O)[C@H](O)[C@H]3NC(C)=O)[C@H]2O)O[C@H](CO)[C@H](O)[C@@H]1O (some centres undefined) |  |  |  |  |  |  |  |  |  |  |  |  |  |  |  | 5.8
CO[C@@H]1C[C@H]([C@H](C)CC(=O)C=C(C)C)[C@@]2(C)CC[C@@]3(O)C(=C12)CC[C@H]1C(C)(C)[C@@H](O[C@@H]2OC[C@@H](O[C@@H]4O[C@H](CO)[C@H](O)[C@H](O)[C@H]4NC(C)=O)[C@H](O)[C@H]2O[C@@H]2O[C@H](CO[C@@H]4OC[C@@H](O)[C@H](O)[C@H]4O)[C@@H](O)[C@H](O)[C@H]2NC(C)=O)CC[C@@]13C | inactive | inactive | inactive | inactive | inactive | inactive | inactive | inactive | inactive | inactive | inactive | inactive | inactive | inactive |  | 
CC(=O)N[C@H]1[C@H](O[C@@H]2CO[C@@H](O[C@H]3CC[C@]4(C)C5=C(CC[C@H]4C3(C)C)[C@@H]3CC[C@H]([C@H](C)CC(=O)C=C(C)C)[C@@]3(C)CC5)[C@H](O[C@@H]3O[C@H](CO[C@@H]4OC[C@@H](O)[C@H](O)[C@H]4O)[C@@H](O)[C@H](O)[C@H]3NC(C)=O)[C@H]2O)O[C@H](CO)[C@H](O)[C@@H]1O | inactive | inactive | inactive | inactive | inactive | inactive | inactive | inactive | inactive | inactive | inactive | inactive | inactive | inactive |  | 

Source: ChEMBL document CHEMBL5390293, “Additional Sarasinosides from the Marine Sponge Melophlus sarasinorum Collected from the Bismarck Sea” (J Nat Prod, 2023)
